# Laboratory results from paper PMC8838415, “Discovery of Novel Pleuromutilin Derivatives as Potent Antibacterial Agents for the Treatment of MRSA Infection” (Molecules, 2022).
# Tests used:
# [1] = system: methicillin-resistant S. aureus (ATCC 43300); experiment: MIC and MBC, broth dilution, MRSA ATCC 43300; type: cell-based; settings: Staphylococcus aureus
# Summary of the method: (§1)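 Compounds, in 2.5% tween-80/2.5% DMSO, serially diluted in MH broth over 32–0.01 µg/mL with 5 × 10^5 CFU/mL inoculum, triplicates, 22–26 h at 37 °C; MIC = lowest concentration with no visible growth. MBC from plating non-turbid wells on MH agar, further 22–26 h at 37 °C.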
# S. aureus (ATCC 29213) = experiment: MIC and MBC, broth dilution, S. aureus ATCC 29213; type: cell-based; settings: Staphylococcus aureus, ATCC29213
# Summary of the method: as §1
# S. aureus (AD3) = experiment: MIC and MBC, broth dilution, S. aureus AD3; type: cell-based; settings: Staphylococcus aureus; S. aureus AD3 (clinical strain)
# Summary of the method: as §1
# S. aureus (144) = experiment: MIC and MBC, broth dilution, S. aureus 144; type: cell-based; settings: Staphylococcus aureus; S. aureus 144 (clinical strain)
# Summary of the method: as §1
# MRSA = experiment: Neutropenic murine thigh infection model; type: in vivo, mice
# Protocol: The neutropenic murine thigh infection model experiment was performed as described in the literature. Six-week-old SPF-ICR female mice weighing 24–28 g were used for this study. The mice were injected with cyclophosphamide (Mead Johnson Pharmaceuticals, Evansville, Indiana—IN, USA) at a dose of 150 mg/kg 4 days and at a dose of 100 mg/kg 1 day before the experiment to reduce neutrophils and achieve immunosuppression (<0.1 × 10^9/L). A total of 0.1 mL MH broth (MRSA concentration approximately 10^7 CFU/mL) was injected into the posterior thigh of mice to establish the infection model. After the thighs of the mice were infected for 2 h, these mice were randomly divided into 3 groups (3 per group). […] A total of 24 h after the completion of the drug, the mice were euthanized and their thigh tissues were collected. Then, their thigh tissues were weighed and homogenized, respectively, in 3 mL of iced sterile saline. Tissue homogenate was serially diluted 10-fold and plated on MH agar. The resulting bacterial colonies were determined after incubation for 24 h.
# MRSA ATCC 43300 = experiment: Post antibiotic effect (PAE)
# Protocol: By diluting with the preheated MH broth 1000 times, the compound was removed from the sample. […] The samples were diluted decuple with sterile saline and plated onto the preheated MH agar plates. […] The PAE value was calculated by the equation (PAE = TA – TC) and presented after an hour.
compound,measurement,setting,value
"C=C[C@]1(C)C[C@@H](OC(=O)CNc2ccc(F)cc2)[C@]2(C)[C@H](C)CC[C@]3(CCC(=O)[C@H]32)[C@@H](C)[C@@H]1O [Compound 9, 22-(4-Fluoroanilineyl)-22-deoxypleuromutilin]",MBC,[1],0.25 µg/mL
same,MIC,[1],0.06 µg/mL
same,MBC,S. aureus (ATCC 29213),0.5 µg/mL
same,MIC,S. aureus (ATCC 29213),0.25 µg/mL
same,MBC,S. aureus (AD3),0.5 µg/mL
same,MIC,S. aureus (AD3),0.12 µg/mL
same,MBC,S. aureus (144),1 µg/mL
same,MIC,S. aureus (144),0.5 µg/mL
same,reduction of MRSA load in thigh compared with tiamulin,"MRSA; 20 mg/kg each, difference to tiamulin group",~ 0.7 log10 CFU/mL
same,reduction of MRSA load in thigh,"MRSA; 20 mg/kg intravenously, 24 h, compared to the no-drug control group",~ 1.3 log10 CFU/mL
same,melting point,,91 to 93 °C
same,PAE,MRSA ATCC 43300; exposure to 2× MIC for 2 h,1.54 h
same,PAE,MRSA ATCC 43300; exposure to 4× MIC for 2 h,1.71 h
